Consider 12 molecules from US7132546B2, “Aniline derivatives or salts thereof and cytokine production inhibitors containing the same” (Ishihara Sangyo Kaisha, Ltd., priority 2000, dated 2006).

Structures are written as SMILES.

Series [1] has as its system interleukin 5 (IL-5) production. As to the kind of experiment: Cytokine production inhibitory effect: IL-5 production by murine spleen cells treated with anti-mouse CD3 antibody and IL-2 (ELISA). The class given is cell-based, Balb/c mice. As to conditions: test compound 100 ppm, anti-CD3 antibody + IL-2, 40 to 48 hours, read-out: IL-5 production inhibitory ratio (%).
For series [2], the system named is interferon γ (IFN-γ) production. Kind of series: Cytokine production inhibitory effect: IFN-γ production by murine spleen cells treated with anti-mouse CD3 antibody and IL-2 (ELISA). The class given is cell-based, Balb/c mice. As to conditions: test compound 100 ppm, anti-CD3 antibody + IL-2, 40 to 48 hours, read-out: IFN-γ production inhibitory ratio (%). A general note: An ELISA detects its analyte on a solid surface through an enzyme-linked reagent.

`O=C(Nc1ccc(S(=O)(=O)Nc2ccccn2)cc1)c1cc([N+](=O)[O-])ccc1Cl` [compound 136] had a melting point of 178 to 181 °C. Further, in series [1], the inhibition at 100 ppm was 98%. In series [2], the inhibition at 100 ppm came out at 100%.

With `O=C(Nc1ccc(S(=O)(=O)Nc2ncccn2)cc1)c1cc([N+](=O)[O-])ccc1Cl` [compound 137], the melting point lay within 252 to 258 °C. Besides, the inhibition at 100 ppm in series [1] was found to be 98%. The inhibition at 100 ppm in series [2] came to 98%.

`O=C(Nc1ccc(S(=O)(=O)NC2=NC3C=CC=CC3N=C2)cc1)c1cc([N+](=O)[O-])ccc1Cl` (stereo not drawn) [compound 138] showed a melting point of 146 to 150 °C. In addition, the inhibition at 100 ppm in series [1] came to 99%. The inhibition at 100 ppm in series [2] was 100%.

The molecule `O=C(Nc1ccc2c(c1)CCC2)c1cc([N+](=O)[O-])ccc1Cl` [compound 139] came in with a melting point of 225 to 229 °C. In series [1], the inhibition at 100 ppm is 89%. Moreover, the inhibition at 100 ppm in series [2] stood at 50%.

Molecule `O=C(Nc1ccc2ncsc2c1)c1cc([N+](=O)[O-])ccc1Cl` [compound 140] showed a melting point of 242 to 244 °C. Further, the inhibition at 100 ppm in series [1] is 100%. In addition, the inhibition at 100 ppm in series [2] stood at 100%.

Molecule `O=C(Nc1nc(-c2ccc(Cl)cc2)cs1)c1cc([N+](=O)[O-])ccc1Cl` [compound 141] registered a melting point of 217 to 221 °C. In series [1], the inhibition at 100 ppm came to 100%. Further, the inhibition at 100 ppm in series [2] turned out to be 100%.

Take `O=C(Nc1ccc(S(=O)(=O)Nc2nccs2)cc1)c1cc([N+](=O)[O-])ccc1Cl` [compound 142]: the melting point lay in the range of 140 to 147 °C. The inhibition at 100 ppm in series [1] stood at 95%. For the same molecule, the inhibition at 100 ppm in series [2] came to 99%.

The molecule `O=C(Nc1nc2ccccc2s1)c1cc([N+](=O)[O-])ccc1Cl` [compound 143] came in with a melting point of 221 to 227 °C. Besides, the inhibition at 100 ppm in series [1] was 97%. In addition, the inhibition at 100 ppm in series [2] was 100%.

As for `O=C(Nc1ccc(=O)n(-c2ncc(C(F)(F)F)cc2Cl)c1)c1cc([N+](=O)[O-])ccc1Cl` [compound 144], the melting point was 116 °C. Further, the inhibition at 100 ppm in series [1] is 99%. Also, in series [2], the inhibition at 100 ppm worked out at 100%.

On to `Cc1ccc(S(=O)(=O)Nc2ccc(NC(=O)c3cc([N+](=O)[O-])ccc3Cl)cc2)cc1` [compound 145], for which the melting point lay in the range of 165 to 172 °C. Moreover, in series [1], the inhibition at 100 ppm was 100%. For the same molecule, the inhibition at 100 ppm in series [2] is 100%.

As for `O=C(NS(=O)(=O)c1ccc(NC(=O)c2cc([N+](=O)[O-])ccc2Cl)cc1)c1ccccc1` [compound 146], the melting point fell in the range of 235 to 237 °C. The inhibition at 100 ppm in series [1] is 62%. Moreover, in series [2], the inhibition at 100 ppm worked out at 43%.

For `Cc1cc(NC(=O)c2cc([N+](=O)[O-])ccc2Cl)ccc1Nc1ncc(C(F)(F)F)cc1Cl` [compound 148], the melting point fell in the range of 189 to 192 °C. For the same molecule, the inhibition at 100 ppm in series [1] is 94%. In addition, the inhibition at 100 ppm in series [2] is 81%.

The term melting point denotes the temperature of the solid-liquid transition.
